Legend:
Type in all cases: in vivo
[1] = tested on: Nephotettix cincticeps (green leaf hopper - nymphs); test: Contact test on green leaf hopper nymphs (NC), Rice plant, mortality; conditions: 48 h, 500 ppm, contact, 2 days, read-out: NC grading of mortality
In short: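 Product dissolved in acetone, diluted in water with 0.01% wetting agent to 500, 250 or 100 ppm; nymphs and/or host rice plants treated. Mortality or knockdown assessed 1–3 days later, graded A (80-100%), B (50-79%), C (<50%).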

[2] = tested on: Diabrotica balteata (rootworm larvae); test: Residual test on rootworm larvae (DB), Filter paper/maize seed, mortality; conditions: 48 h, 500 ppm, residual, 2 days, read-out: DB grading of mortality
In short: (§1)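 Compound dissolved in acetone, diluted with water containing 0.01% by weight wetting agent to 500, 250 or 100 ppm. Pests held on host plant or foodstuff; pests and/or medium treated. Mortality scored one to three days later as grade A (80-100%), B (50-79%) or C (<50%) mortality or knockdown.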

[3] = tested on: Blattella germanica (cockroach nymphs); test: Contact test on cockroach nymphs (BG/C), Plastic pot, mortality; conditions: 48 h, 500 ppm, contact, 2 days, read-out: BG/C grading of mortality
In short: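 Cockroach nymphs and/or their medium were treated with aqueous preparations at 500, 250 or 100 ppm (acetone solution diluted in water with 0.01% Lissapol NX wetting agent). Mortality or knockdown was assessed typically 1–3 days later and graded A (80–100%), B (50–79%) or C (<50%).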

[4] = tested on: Heliothis virescens (tobacco budworm - larvae); test: Residual test on tobacco budworm larvae (HV), Cotton leaf, mortality; conditions: 48 h, read-out: HV grading of mortality
In short: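 Product in acetone diluted with water containing 0.01% Lissapol NX, at 500, 250 or 100 ppm; pests and/or host medium (here cotton leaf) treated. Mortality scored one to three days later, graded A (80-100%), B (50-79%), C (<50%).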

[5] = tested on: Tetranychus urticae (spider mites - adult); test: Contact test on spider mites - adult (TUa), French bean leaf, mortality; conditions: 72 h, 500 ppm, contact, 3 days, read-out: TUa grading of mortality
In short: as §1

Myzus persicae (aphids) = test: Contact test on aphids (MP), Chinese Cabbage leaf, mortality; conditions: 72 h, 500 ppm, contact, 3 days, read-out: MP grading of mortality
In short: as §1

[6] = tested on: Spodoptera exigua (lesser army worm - larvae); test: Residual test on lesser army worm larvae (SP), Cotton leaf, mortality; conditions: 48 h, 500 ppm, residual, 2 days, read-out: SP grading of mortality
In short: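 Product dissolved in acetone and diluted in water with 0.01% wetting agent to 500, 250 or 100 ppm; larvae and/or cotton leaf host treated. Mortality or knockdown scored one to three days later and graded A (80-100%), B (50-79%) or C (<50%).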

[7] = tested on: Musca domestica (houseflies - adults); test: Contact test on houseflies - adults (MD), Cotton wool/sugar, mortality; conditions: 72 h, 500 ppm, contact, 3 days, read-out: MD grading of mortality
In short: as §1

[8] = tested on: Musca domestica (houseflies - adults); test: Knockdown test on houseflies - adults (MD/KD), Cotton wool/sugar; conditions: 500 ppm, 4 hours, read-out: MD/KD grading of knockdown
In short: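 Adult houseflies exposed to the compound at 500, 250 or 100 ppm in acetone/water with 0.01% wetting agent, on a cotton wool/sugar medium. Knockdown and mortality assessed, graded A (80-100%), B (50-79%) or C (<50%).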

[9] = tested on: Tetranychus urticae (spider mites - ova); test: Contact test on spider mites - ova (TUe), French bean leaf, mortality; conditions: 144 h, 500 ppm, contact, 6 days, read-out: TUe grading of mortality
In short: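 Graded read-out: A 80-100%, B 50-79%, C below 50% mortality or knockdown, assessed usually 1-3 days post-treatment. Liquid preparations at 500, 250 or 100 ppm by weight, from acetone solution diluted in water with 0.01% wetting agent, applied to pests and/or their host plant or food medium.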

SMILES | mortality at 500 ppm [1] | mortality at 500 ppm [2] | mortality at 500 ppm [3] | mortality at 500 ppm [4] | mortality at 500 ppm [5] | mortality at 500 ppm (Myzus persicae (aphids)) | mortality at 500 ppm [6] | mortality at 500 ppm [7] | pest or weed control at 500 ppm [8] | mortality at 500 ppm [9]
C[C@@H](OC(=O)[C@@H](c1cnc(C2(C)CC2)nc1)C(C)(C)C)c1cccc(Oc2ccccc2)n1 (racemic) [Compound 203, (RS)-1-(6-phenoxypyrid-2-yl)ethyl (RS)-2-[2-(1-methylcyclopropyl)pyrimidin-5-yl]-3,3-dimethylbutanoate] | 80 to 100% | < 50% | 50 to 79% | 80 to 100% | 80 to 100% | 80 to 100% | 80 to 100% | 80 to 100% | 80 to 100% | 50 to 79%
CC1(c2ncc(C(C(=O)OCc3ccc(F)c(Oc4ccccc4)c3)C(C)(C)C)cn2)CC1 (racemic) [Compound 204, 4-fluoro-3-phenoxybenzyl (RS)-2-[2-(1-methylcyclopropyl)pyrimidin-5-yl]-3,3-dimethylbutanoate] | 80 to 100% | < 50% | 50 to 79% | 80 to 100% | 80 to 100% | 80 to 100% | 80 to 100% | 80 to 100% | 80 to 100% | < 50%
Cc1ncc(C(C(=O)OC(C)c2cccc(Oc3ccccc3)n2)C(C)(C)C)cn1 (racemic) [Compound 205, RS-1-(6-phenoxypyrid-2-yl)ethyl (RS)-2-(2-methylpyrimidin-5-yl)-3,3-dimethylbutanoate] | 80 to 100% | < 50% | < 50% | 80 to 100% | 80 to 100% | 80 to 100% | 80 to 100% | < 50% | < 50% | < 50%
Cc1ncc(C(C(=O)OCc2ccc(F)c(Oc3ccccc3)c2)C(C)(C)C)cn1 (racemic) [Compound 206, 4-fluoro-3-phenoxybenzyl (RS)-2-(2-methylpyrimidin-5-yl)-3,3,-dimethylbutanoate] | 80 to 100% | 80 to 100% | 50 to 79% | 80 to 100% | 80 to 100% | 80 to 100% | 80 to 100% | 80 to 100% | 80 to 100% | < 50%
COCc1c(F)c(F)c(COC(=O)C(c2cnc(C3(C)CCCCC3)nc2)C(C)(C)C)c(F)c1F (racemic) [Compound 207, 2,3,5,6-tetrafluoro-4-(methoxymethyl)benzyl (RS)-2-[2-(1-methylcyclohexyl)pyrimidin-5-yl]-3,3-dimethylbutanoate] | 80 to 100% | < 50% | < 50% | < 50% | 80 to 100% | 80 to 100% | < 50% | < 50% | 80 to 100% | < 50%
COCc1c(F)c(F)c(COC(=O)C(c2cnc(-c3ccccc3Cl)nc2)C(C)(C)C)c(F)c1F (racemic) [Compound 208, 2,3,5,6-tetrafluorbenzyl-4-(methoxymethyl)-benzyl (RS)-2-[2-(2-chlorophenyl)pyrimidin-5-yl]-3,3-dimethylbutanoate] | 80 to 100% | < 50% | < 50% | < 50% | 80 to 100% | 80 to 100% | < 50% | < 50% | < 50% | < 50%
CC(C)(C)C(C(=O)OCc1ccc(F)c(Oc2ccccc2)c1)c1cnc(-c2ccccc2Cl)nc1 (racemic) [Compound 209, 4-fluoro-3-phenoxybenzyl (RS)-2-[2-(2-chlorophenyl)pyrimidin-5-yl]-3,3-dimethylbutanoate] | < 50% | < 50% | < 50% | 80 to 100% | 80 to 100% | 50 to 79% | 50 to 79% | < 50% | < 50% | < 50%
C=CC(C)(C)C(C(=O)OCc1c(F)c(F)c(COC)c(F)c1F)c1cnc(C(C)(C)C)nc1 (racemic) [Compound 211, 4-(methoxymethyl)-2,3,5,6-tetrafluorobenzyl (RS)-2-[2-(1,1-dimethylethyl)pyrimidin-5-yl]-3,3-dimethylpent-4-enoate] | 80 to 100% | < 50% | < 50% | < 50% | 80 to 100% | 80 to 100% | 80 to 100% | < 50% | 80 to 100% | 80 to 100%
C=CCC(C(=O)OCc1c(F)c(F)c(COC)c(F)c1F)c1cnc(C(C)(C)C)nc1 (racemic) [Compound 212, 4-(methoxymethyl)-2,3,5,6-tetrafluorobenzyl (RS)-2-[2-(1,1-dimethylethyl)pyrimidin-5-yl]pent-4-enoate] | 80 to 100% | < 50% | < 50% | < 50% | 80 to 100% | 80 to 100% | 50 to 79% | < 50% | 80 to 100% | < 50%
COCc1c(F)c(F)c(COC(=O)C(c2cnc(C(C)(C)C)nc2)C(F)(F)F)c(F)c1F (racemic) [Compound 213, 4-(methoxymethyl)-2,3,5,6-tetrafluorobenzyl (RS)-2-[2-(1,1-dimethylethyl)pyrimidin-5-yl]-3,3,3-trifluoropropionate] | < 50% | < 50% | 50 to 79% | < 50% | 80 to 100% | 50 to 79% | < 50% | < 50% | 80 to 100% | < 50%
CC(C)(C)c1ncc(C(C(=O)OCc2c(F)c(F)c(CC3CC3(Cl)Cl)c(F)c2F)C(C)(C)C)cn1 (racemic) [Compound 216, 4-[(2,2-dichlorocyclopropyl)methyl]-2,3,5,6-tetrafluorobenzyl (RS)-2-[2-(1,1-dimethylethyl)pyrimidin-5-yl]-3,3-dimethylbutanoate] | 50 to 79% | < 50% | < 50% | < 50% | 80 to 100% | < 50% | 50 to 79% | < 50% | < 50% | < 50%
COCc1c(F)c(F)c(COC(=O)C(c2cnc(C(C)(C)C)nc2)C(C)(C)C)c(F)c1OC (racemic) [Compound 217, 2,3,6-trifluoro-5-methoxy-4-(methmethyl)-benzyl (RS)-2-[2-(1,1-dimethylethyl)pyrimidin-5-yl]-3,3-dimethylbutanoate] | 80 to 100% | < 50% | < 50% | 80 to 100% | 80 to 100% | 80 to 100% | 80 to 100% | 80 to 100% | 80 to 100% | < 50%
